Reference: PubChem BioAssay (NCI)
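Compound exposure: 48 hours, 5 concentrations, 96-well plates. The concentration for full growth arrest is given as TGI.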

Tests used:
Assay in all cases: inhibition of tumour cell growth, NCI panel, 48 h
[1] = tested on: MDA-MB-231 breast
[2] = tested on: EKVX NSCLC
[3] = tested on: HOP-62 NSCLC
[4] = tested on: HT29 colon
[5] = tested on: 786-0 renal
[6] = tested on: OVCAR-5 ovarian
[7] = tested on: HL-60(TB) leukemia
[8] = tested on: KM12 colon
[9] = tested on: MDA-N
[10] = tested on: NCI-H23 lung
[11] = tested on: SNB-75 CNS
[12] = tested on: SN12C renal
[13] = tested on: NCI-H226 lung
[14] = tested on: SF-268 CNS
[15] = tested on: HCC-2998 colon
[16] = tested on: SW-620 colon

Structure (SMILES) | TGI [1] | TGI [2] | TGI [3] | TGI [4] | TGI [5] | TGI [6] | TGI [7] | TGI [8] | TGI [9] | TGI [10] | TGI [11] | TGI [12] | TGI [13] | TGI [14] | TGI [15] | TGI [16]
CC(=O)N1CC[N+](C)(CCCCN2c3ccccc3Sc3cc(N=[N+]=[N-])ccc32)CC1 | > 100 µM | > 100 µM | > 100 µM | > 100 µM | > 100 µM | > 100 µM | > 100 µM | > 100 µM | > 100 µM | > 100 µM | > 100 µM | > 100 µM | > 100 µM | > 100 µM | > 100 µM | > 100 µM
Clc1ccc2c(c1)CC1C[N+]3=C(CCCC3)C1=C2 (centres undefined) | > 100 µM | > 100 µM | > 100 µM | > 100 µM | > 100 µM | > 100 µM | > 100 µM | > 100 µM | > 100 µM | > 100 µM | > 100 µM | > 100 µM | > 100 µM | > 100 µM |  | > 100 µM
Cc1nc(N)c(N2CCN(Cc3ccccc3)CC2)c(=O)[nH]1 | > 100 µM | > 100 µM | > 100 µM | > 100 µM | > 100 µM | > 100 µM | > 100 µM | > 100 µM | > 100 µM | > 100 µM |  | > 100 µM | > 100 µM | > 100 µM | > 100 µM | > 100 µM
BrCCC[P+](c1ccccc1)(c1ccccc1)c1ccccc1 | 86 µM | > 100 µM | > 100 µM | > 100 µM | > 100 µM | > 100 µM | 6.49 µM | 58.1 µM | > 76.5 µM | > 64.7 µM | 59.2 µM | > 100 µM | > 100 µM | > 100 µM | > 100 µM | > 100 µM
O=C1/C(=C/c2ccc(Cl)cc2)N=C(c2ccccc2)N1C1Nc2cc3c(cc2S1)NC(N1C(=O)/C(=C/c2ccc(Cl)cc2)N=C1c1ccccc1)S3 (centres undefined) | > 100 µM | > 100 µM | > 100 µM | > 100 µM | > 100 µM | > 100 µM | 2.47 µM | > 100 µM | > 100 µM | > 100 µM |  |  | > 100 µM | > 100 µM | > 100 µM | > 100 µM
COc1cc(-c2c3c([nH]c(=O)c2C#N)-c2cc([N+](=O)[O-])ccc2CCC3)cc(OC)c1OC | 79.2 µM | 70.5 µM | 92.2 µM | > 100 µM | 65.2 µM | 69.1 µM | 72.7 µM | > 100 µM | 55 µM | 45.8 µM | 62.6 µM | 46.7 µM | 89 µM | > 100 µM | 46.1 µM | > 100 µM
CC(C)c1ccc2c(c1)C=C1OC(=O)[C@]3(C)CCC[C@@]2(C)C13 (some centres undefined) | > 100 µM | > 100 µM | > 100 µM | > 100 µM | > 100 µM |  | > 100 µM | > 100 µM | > 100 µM | > 100 µM | > 100 µM | > 100 µM | > 100 µM | > 100 µM | > 100 µM | > 100 µM
O=C1NC(N/N=C/c2ccccc2)=N/C1=C\c1cccs1 | 38.7 µM | 47.3 µM | 37.8 µM | > 55.3 µM | 44.6 µM | 70.8 µM | 36.7 µM | > 70.9 µM | > 25.2 µM | 40.7 µM | 51.8 µM | 46.4 µM | 25.8 µM | 30.3 µM |  | > 47.5 µM
CC1(C)O[C@H]2[C@@H]3N=C(c4ccccc4)O[C@@H]3C=C[C@H]2O1 | > 100 µM | > 100 µM | > 100 µM | > 100 µM | > 100 µM | > 100 µM | > 100 µM | > 100 µM | > 100 µM | > 100 µM |  | > 100 µM | > 100 µM | 33.4 µM | > 100 µM | > 100 µM
CCN(CC)c1nc(N(C)C)c2ccc(OC)cc2n1 | 75.8 µM | 21.8 µM | 76.7 µM | 26.1 µM | 89.3 µM | > 100 µM | 17.2 µM | 48.2 µM | 22 µM | > 100 µM | 66.6 µM | 48.7 µM | 55.2 µM | > 100 µM | 26.9 µM | 50 µM
CC(C)/C(Cl)=N\OC(=O)Nc1ccc(F)c([N+](=O)[O-])c1 | 28.9 µM | 26.5 µM | 32 µM | 35.3 µM | 7.87 µM | 42.8 µM | 2.85 µM | 28.5 µM | 29.4 µM | 41.2 µM | 27.2 µM | 16.5 µM | 50.1 µM | 27.6 µM | > 100 µM | 7.56 µM
Cc1cc(C)nc(NS(=O)(=O)c2ccc(NNC(=O)c3cccc4c(NNc5ccc(S(=O)(=O)Nc6nc(C)cc(C)n6)cc5)c5ccccc5nc34)cc2)n1 | 44.9 µM | 40.5 µM | 85.9 µM | 37.8 µM | 54.1 µM | 40.3 µM | 47 µM | 35.6 µM | 43.1 µM | 51.6 µM | 52.3 µM | > 100 µM | 55.9 µM | 61 µM | 37.7 µM | 48.3 µM
O=c1oc2cc(O)ccc2cc1-c1nc2ccccc2s1 | 53.6 µM | 85.9 µM | 41.6 µM | 85.6 µM | 52.7 µM | > 100 µM | 55.6 µM | > 100 µM | 49.9 µM | 61.2 µM |  | 49 µM |  |  | 66.1 µM | 44 µM
CCOC(=O)NC(NNc1ccc([N+](=O)[O-])cc1[N+](=O)[O-])(C(F)(F)F)C(F)(F)F | > 100 µM | > 100 µM | > 100 µM | > 100 µM | > 100 µM | > 100 µM | 58.9 µM | > 100 µM | > 100 µM | > 100 µM | > 100 µM | > 100 µM | > 100 µM | > 100 µM | > 100 µM | > 100 µM
COc1cc(C=Nc2ccc(S(N)(=O)=O)cc2)cc(OC)c1 | > 50 µM | > 50 µM | > 50 µM | > 50 µM | > 50 µM | > 50 µM | 36.8 µM | > 50 µM | > 50 µM | > 50 µM | > 50 µM | > 50 µM | > 50 µM | > 50 µM | > 50 µM | 
